Reference: the OligoGym collection
Where “and” joins values, the source holds several entries; their conditions need not be identical. Equal values may be shown once. After the bases stand the sugars from the 5' end (letter, count) and the backbone: PS all phosphorothioate, else s phosphorothioate and o phosphodiester by linkage. Methylation of C is not given here. e = 2'-O-(2-methoxyethyl) (MOE); k = constrained ethyl (cEt); d = 2'-deoxy (DNA)

Biological target: IRF4
Settings: ASO

GGGTAAAGGAGTGCAG (sugars k3 d10 k3, PS)
target mRNA inhibition (SK-MEL-28, 4 µM): 19%

CAGACCTTATGCTTGG (sugars k4 d8 k4, PS)
target mRNA inhibition (SK-MEL-28, 4 µM): 26%

GACAATGTTGTATGAA (sugars k3 d10 k3, PS)
target mRNA inhibition (SK-MEL-28, 4 µM): 72%

ATATATGACGACTTAA (sugars k3 d10 k3, PS)
target mRNA inhibition (SK-MEL-28, 4 µM): 6%

AGCTTGATAAAGGCTG (sugars k3 d9 k3 e1, PS)
target mRNA inhibition (MM.1R, 1 µM): 2%

GTTAAAGCAGCATAAT (sugars k3 d10 k3, PS)
target mRNA inhibition (SK-MEL-28, 4 µM): 27%

GAAGTTTACACTGGAT (sugars kkdddddddddekeke, PS)
target mRNA inhibition (MM.1R, 0.074 µM): 14% | target mRNA inhibition (MM.1R, 0.222 µM): 26% | target mRNA inhibition (MM.1R, 0.666 µM): 50% | target mRNA inhibition (MM.1R, 1 µM): 58% | target mRNA inhibition (MM.1R, 2 µM): 59%

TCAAATCTTCAACAGC (sugars k3 d10 k3, PS)
target mRNA inhibition (SK-MEL-28, 4 µM): 76%

GAATTTACAGCATCTA (sugars k3 d10 k3, PS)
target mRNA inhibition (SK-MEL-28, 4 µM): 76%

TAATTTTAAGGCCCTG (sugars k3 d10 k3, PS)
target mRNA inhibition (SK-MEL-28, 4 µM): 39%

AAACTTGGGTCACTTA (sugars k3 d10 k3, PS)
target mRNA inhibition (MM.1R, 1 µM): 5%

ATACACACCCTCGGGC (sugars k3 d10 k3, PS)
target mRNA inhibition (MM.1R, 1 µM): -10%

ATTCAATGCACCCCCC (sugars k3 d10 k3, PS)
target mRNA inhibition (MM.1R, 1 µM): 2%

GACAGTGACTTGCATC (sugars kkdddddddddkekek, PS)
target mRNA inhibition (MM.1R, 1 µM): 5%

CCAATAGTCTAGCTGG (sugars k3 d10 k3, PS)
target mRNA inhibition (SK-MEL-28, 4 µM): 19%

GAAATAGCATCAGAGC (sugars k3 d10 k3, PS)
target mRNA inhibition (SK-MEL-28, 4 µM): 45%

TTAAAATATCGCCCAT (sugars k3 d10 k3, PS)
target mRNA inhibition (SK-MEL-28, 4 µM): 32%

CACGGACGGAGGCGGC (sugars k3 d10 k3, PS)
target mRNA inhibition (SK-MEL-28, 4 µM): 18%

CGTGTGCTTGCCAAGC (sugars kkdddddddddkdkdk, PS)
target mRNA inhibition (MM.1R, 1 µM): 67% and 53%

GGTGTAACTTTTACCT (sugars k3 d10 k3, PS)
target mRNA inhibition (SK-MEL-28, 4 µM): 11%

CAGTTGTAAATGAGTC (sugars kdddddddddkekeke, PS)
target mRNA inhibition (H929, 0.00067 µM): 9% | target mRNA inhibition (H929, 0.002 µM): 26% | target mRNA inhibition (H929, 0.00667 µM): 39% | target mRNA inhibition (H929, 0.02 µM): 48% | target mRNA inhibition (H929, 0.04 µM): 27% | target mRNA inhibition (KMS11, 0.2 µM): 62% and 74% | target mRNA inhibition (MM.1R, 0.074 µM): 20% | target mRNA inhibition (MM.1R, 0.222 µM): 36% | target mRNA inhibition (MM.1R, 0.666 µM): 59% | target mRNA inhibition (MM.1R, 1 µM): 62% | target mRNA inhibition (MM.1R, 2 µM): 79%

CACCTCTTCACTACCT (sugars k3 d10 k3, PS)
target mRNA inhibition (MM.1R, 1 µM): 0%

TCCGAGCTCGGCCCCC (sugars k3 d10 k3, PS)
target mRNA inhibition (MM.1R, 1 µM): -10%

CGTAGCCCCTCAGGAA (sugars k3 d10 k3, PS)
target mRNA inhibition (MM.1R, 4 µM): 81% and 59%

AGAAAGAAGCAAGTCG (sugars k3 d10 k3, PS)
target mRNA inhibition (SK-MEL-28, 4 µM): 37%

AGCTCCACTGTTAAAG (sugars k3 d10 k3, PS)
target mRNA inhibition (SK-MEL-28, 4 µM): 44%

ACACTGGATCTGAATT (sugars k3 d10 k3, PS)
target mRNA inhibition (SK-MEL-28, 4 µM): 46%

AGTTGTAAATGAGTCG (sugars k2 d9 e3 k2, PS)
target mRNA inhibition (H929, 0.04 µM): 57% and 42% | target mRNA inhibition (KMS11, 0.2 µM): 86% and 92% | target mRNA inhibition (MM.1R, 0.074 µM): 10% | target mRNA inhibition (MM.1R, 0.222 µM): 25% | target mRNA inhibition (MM.1R, 0.666 µM): 55% | target mRNA inhibition (MM.1R, 1 µM): 66% | target mRNA inhibition (MM.1R, 2 µM): 77%

GCTTCTTCAATTTACA (sugars k3 d10 k3, PS)
target mRNA inhibition (SK-MEL-28, 4 µM): 45%

GCGAAGGCTCCTACCC (sugars k3 d10 k3, PS)
target mRNA inhibition (SK-MEL-28, 4 µM): -15%

AGTGACTTGCATCCAT (sugars kkddddddddddkeke, PS)
target mRNA inhibition (MM.1R, 1 µM): 50%

CAAGCTGGGCCTTGCC (sugars k3 d10 k3, PS)
target mRNA inhibition (SK-MEL-28, 4 µM): 34%

GGAAGTTTACACTGGA (sugars kkddddddddddkeke, PS)
target mRNA inhibition (MM.1R, 1 µM): 46%

CGCCAGGCCGGCTAGG (sugars k3 d10 k3, PS)
target mRNA inhibition (SK-MEL-28, 4 µM): 10%

CGAAAACAGCCGCCGG (sugars k3 d10 k3, PS)
target mRNA inhibition (SK-MEL-28, 4 µM): 15%

CAAGTGTCTAAAGTCC (sugars kkddddddddddkeke, PS)
target mRNA inhibition (MM.1R, 1 µM): 16% and 17%

GAGGAAGCCGTTCCTT (sugars k3 d10 k3, PS)
target mRNA inhibition (SK-MEL-28, 4 µM): 51%

GAAGTTTACACTGGAT (sugars kkkdddddddddkeke, PS)
target mRNA inhibition (MM.1R, 1 µM): 49%

CCTACACAGGCTAATC (sugars k3 d10 k3, PS)
target mRNA inhibition (SK-MEL-28, 4 µM): 13%

ATGAGAACTTTGATGT (sugars k3 d10 k3, PS)
target mRNA inhibition (SK-MEL-28, 4 µM): 15%

GCACTGGCATCGAGAC (sugars k3 d10 k3, PS)
target mRNA inhibition (SK-MEL-28, 4 µM): 57%

CTGCTTGAGGTTTTCC (sugars kkdddddddddekeke, PS)
target mRNA inhibition (MM.1R, 1 µM): 49%

CAGAACGAGGTAAATC (sugars k3 d10 k3, PS)
target mRNA inhibition (SK-MEL-28, 4 µM): 59%

TGTACAGGACAGGTAA (sugars k3 d10 k3, PS)
target mRNA inhibition (MM.1R, 1 µM): 8%

GACCAACTGGAAAACC (sugars k3 d10 k3, PS)
target mRNA inhibition (SK-MEL-28, 4 µM): 56%

CAAGCAGTGATGTCAG (sugars kdddddddddkekeke, PS)
target mRNA inhibition (MM.1R, 1 µM): 10% and 12%

GAGTCTTTGAGGCTGC (sugars k3 d10 k3, PS)
target mRNA inhibition (SK-MEL-28, 4 µM): 34%

TAACAATACTGTAAGG (sugars k3 d10 k3, PS)
target mRNA inhibition (SK-MEL-28, 4 µM): 45%

CATGTAGTTGTGAACC (sugars k3 d10 k3, PS)
target mRNA inhibition (SK-MEL-28, 4 µM): 27%

AGGCAGTTGTGCCGTC (sugars k3 d10 k3, PS)
target mRNA inhibition (SK-MEL-28, 4 µM): -62%

CTTATTTGTGGCTCAA (sugars k3 d10 k3, PS)
target mRNA inhibition (SK-MEL-28, 4 µM): 55%

AAAGATACAAAACGGA (sugars k3 d10 k3, PS)
target mRNA inhibition (SK-MEL-28, 4 µM): 38%

GTAATGTAGGGATACA (sugars k3 d10 k3, PS)
target mRNA inhibition (SK-MEL-28, 4 µM): 48%

CGATCATCAACTTCTT (sugars k3 d10 k3, PS)
target mRNA inhibition (MM.1R, 0.0625 µM): 24% and 23% | target mRNA inhibition (MM.1R, 0.25 µM): 50% | target mRNA inhibition (MM.1R, 1 µM): 72% and 75% | target mRNA inhibition (MM.1R, 4 µM): 92% and 93%

TGTGAACCTGCTGGGC (sugars k3 d10 k3, PS)
target mRNA inhibition (SK-MEL-28, 4 µM): 2%

TCAGATGTCACTGATT (sugars k3 d10 k3, PS)
target mRNA inhibition (SK-MEL-28, 4 µM): 35%

GGGCAAGATGAGAATT (sugars k3 d10 k3, PS)
target mRNA inhibition (SK-MEL-28, 4 µM): 0%

TAGAAGCCCACAAGAA (sugars k3 d10 k3, PS)
target mRNA inhibition (SK-MEL-28, 4 µM): 1%

GCTCACTGCTCACTAA (sugars k3 d10 k3, PS)
target mRNA inhibition (SK-MEL-28, 4 µM): 33%

AAGTCATTGCTCTTGT (sugars k3 d10 k3, PS)
target mRNA inhibition (SK-MEL-28, 4 µM): 28%

TTCCATTGGAGGAGGG (sugars k3 d10 k3, PS)
target mRNA inhibition (SK-MEL-28, 4 µM): 28%

GAGCATCCGCTTGGAG (sugars k3 d10 k3, PS)
target mRNA inhibition (SK-MEL-28, 4 µM): 31%

AGCAAGGCCTCTGAGC (sugars k3 d10 k3, PS)
target mRNA inhibition (SK-MEL-28, 4 µM): 55%

TAAATCACCCTGGTCA (sugars k3 d10 k3, PS)
target mRNA inhibition (SK-MEL-28, 4 µM): 22%

AGGGACCGCGCCAGGC (sugars k3 d10 k3, PS)
target mRNA inhibition (MM.1R, 1 µM): 0%

TTGGTTGGCTGGTCTT (sugars k2 d9 e3 k2, PS)
target mRNA inhibition (MM.1R, 1 µM): 50%

CAGTTGTAAATGAGTC (sugars kkkddddddddkekek, PS)
target mRNA inhibition (MM.1R, 0.074 µM): 26% | target mRNA inhibition (MM.1R, 0.222 µM): 52% | target mRNA inhibition (MM.1R, 0.666 µM): 75% | target mRNA inhibition (MM.1R, 1 µM): 76% | target mRNA inhibition (MM.1R, 2 µM): 88%

CTCCAGGGAATGGATA (sugars k3 d10 k3, PS)
target mRNA inhibition (SK-MEL-28, 4 µM): 27%

TCACACTGCCGTGATC (sugars k3 d10 k3, PS)
target mRNA inhibition (SK-MEL-28, 4 µM): 22%

ACAAGTGCTAGGATTC (sugars k3 d10 k3, PS)
target mRNA inhibition (SK-MEL-28, 4 µM): 67%

ATCTGAGACTACACCT (sugars k3 d10 k3, PS)
target mRNA inhibition (MM.1R, 1 µM): -8%

GAGCACTGCATGAAAG (sugars k3 d10 k3, PS)
target mRNA inhibition (SK-MEL-28, 4 µM): 51%

GTAAACGCAAGTCTGA (sugars k3 d10 k3, PS)
target mRNA inhibition (MM.1R, 1 µM): 14%

GATTCATTTCCTTCAC (sugars k3 d10 k3, PS)
target mRNA inhibition (SK-MEL-28, 4 µM): 49%

CACATCAATGTTTTAG (sugars kkddddddddddkeke, PS)
target mRNA inhibition (MM.1R, 1 µM): 25% and 39%

TTACCATTTTCACAAG (sugars k3 d10 k3, PS)
target mRNA inhibition (SK-MEL-28, 4 µM): 8%

GGCCCCAGCCAAGAAG (sugars k3 d10 k3, PS)
target mRNA inhibition (SK-MEL-28, 4 µM): 8%

GTGATGTCAGGTTTTC (sugars kkddddddddddkeke, PS)
target mRNA inhibition (MM.1R, 1 µM): 18%

TCTAAAGTCCCATCGA (sugars k3 d10 k3, PS)
target mRNA inhibition (SK-MEL-28, 4 µM): 31%

ATGTGGAGCTCCTCCT (sugars k3 d10 k3, PS)
target mRNA inhibition (SK-MEL-28, 4 µM): 20%

CTAGATAACATGAGAG (sugars k3 d10 k3, PS)
target mRNA inhibition (SK-MEL-28, 4 µM): 53%

AAACGGACTGGAACAT (sugars k3 d10 k3, PS)
target mRNA inhibition (SK-MEL-28, 4 µM): 7%

TCAGTTTGTGAAGCAT (sugars k3 d10 k3, PS)
target mRNA inhibition (SK-MEL-28, 4 µM): 75% and 89%

GCCCGGAGGAAGGGCG (sugars k3 d10 k3, PS)
target mRNA inhibition (SK-MEL-28, 4 µM): -6%

CAAGGAGATCCACCTG (sugars k3 d10 k3, PS)
target mRNA inhibition (SK-MEL-28, 4 µM): -21%

TTAAAGGGTAAGCACT (sugars k3 d10 k3, PS)
target mRNA inhibition (MM.1R, 1 µM): -18%

AAGGAGGCGGGCCTTG (sugars k3 d10 k3, PS)
target mRNA inhibition (SK-MEL-28, 4 µM): 2%

TAGAAAGAGCTGGTAG (sugars k3 d10 k3, PS)
target mRNA inhibition (SK-MEL-28, 4 µM): 9%

ATCAGAATGTTTCGAC (sugars k3 d10 k3, PS)
target mRNA inhibition (SK-MEL-28, 4 µM): 46%

TGTGTCAAAGAGCTTG (sugars k3 d10 k3, PS)
target mRNA inhibition (SK-MEL-28, 4 µM): 22%

CTACAGGCACGGCTTC (sugars k3 d10 k3, PS)
target mRNA inhibition (SK-MEL-28, 4 µM): 52%

AACAGGCTATCAGGAT (sugars k3 d10 k3, PS)
target mRNA inhibition (SK-MEL-28, 4 µM): 17%

TACTGTTACCGATGCT (sugars kdddddddddkekeke, PS)
target mRNA inhibition (MM.1R, 1 µM): 18%

TGTAGTATGAGAAACG (sugars k3 d9 k3 e1, PS)
target mRNA inhibition (MM.1R, 1 µM): 33%

GCCATTCGAGGTGATT (sugars k3 d10 k3, PS)
target mRNA inhibition (SK-MEL-28, 4 µM): 56%
